Assay results published in paper PMC4303209, “A novel phosphatidylinositol 3-kinase (PI3K) inhibitor directs a potent FOXO-dependent, p53-independent cell cycle arrest phenotype characterized by the differential induction of a subset of FOXO-regulated genes” (Breast Cancer Research : BCR, 2014).

System: MCF-7 breast cancer cells
Assay: Microarray gene expression analysis (Agilent whole human genome 4 x 44K; compound vs DMSO, LIMMA log2 fold change)
Format: cell-based
Settings: Apoptosis genes

Oc1cccc(-c2nc(N3CCOCC3)c3oc4ncccc4c3n2)c1 [PI-103]
TBX1 log2FC (Gene 6899): 0.079
TBX5 log2FC (Gene 6910): 0.103
TBX3 log2FC (Gene 6926): -0.691
TCF7L2 log2FC (Gene 6934): 0.036
TDGF1 log2FC (Gene 6997): 0.005
PRDX2 log2FC (Gene 7001): 0.385
TERF1 log2FC (Gene 7013): 0.376
TERT log2FC (Gene 7015): -0.048
TFAP2A log2FC (Gene 7020): -0.507
TFAP2B log2FC (Gene 7021): -0.150
TFAP4 log2FC (Gene 7023): 0.386
TGFA log2FC (Gene 7039): -0.533
TGFB1 log2FC (Gene 7040): -0.436
TGFB3 log2FC (Gene 7043): 0.355
TGFBR1 log2FC (Gene 7046): 0.121
TGFBR2 log2FC (Gene 7048): 0.950
TGM2 log2FC (Gene 7052): -0.690
THBS1 log2FC (Gene 7057): -0.908
THRA log2FC (Gene 7067): 0.660
TIA1 log2FC (Gene 7072): 0.065
TIAL1 log2FC (Gene 7073): 0.160
TIAM1 log2FC (Gene 7074): -0.173
TIMP1 log2FC (Gene 7076): -0.137
TJP1 log2FC (Gene 7082): 0.317
TLE1 log2FC (Gene 7088): 0.501
TLR2 log2FC (Gene 7097): -0.157
TLR3 log2FC (Gene 7098): 0.801
NR2E1 log2FC (Gene 7101): -0.112
TMF1 log2FC (Gene 7110): 0.594
TNF log2FC (Gene 7124): -1.866
TNFAIP1 log2FC (Gene 7126): -0.271
TNFAIP3 log2FC (Gene 7128): -0.853
TNFRSF1A log2FC (Gene 7132): -0.921
TOP2A log2FC (Gene 7153): 0.914
TP53 log2FC (Gene 7157): 0.057
TP53BP2 log2FC (Gene 7159): 0.347
TP73 log2FC (Gene 7161): -0.255
TPD52L1 log2FC (Gene 7164): 0.154
TPT1 log2FC (Gene 7178): 0.376
HSP90B1 log2FC (Gene 7184): 0.295
TRAF1 log2FC (Gene 7185): -0.626
TRAF3 log2FC (Gene 7187): -0.946
TRAF5 log2FC (Gene 7188): 0.350
TRAF6 log2FC (Gene 7189): -0.154
TRIO log2FC (Gene 7204): 0.335
TRPS1 log2FC (Gene 7227): 0.634
PHLDA2 log2FC (Gene 7262): -3.120
TWIST1 log2FC (Gene 7291): 0.425
TNFRSF4 log2FC (Gene 7293): 0.091
TYRO3 log2FC (Gene 7301): 0.021
UBA52 log2FC (Gene 7311): 0.306
UBB log2FC (Gene 7314): 0.036
UBC log2FC (Gene 7316): 0.333
UBE2B log2FC (Gene 7320): 0.652
UBE2D3 log2FC (Gene 7323): -0.368
UCN log2FC (Gene 7349): 0.293
UCP2 log2FC (Gene 7351): 0.166
UNG log2FC (Gene 7374): -0.352
VAV1 log2FC (Gene 7409): 0.641
VAV2 log2FC (Gene 7410): 0.038
VCP log2FC (Gene 7415): -0.262
VDAC1 log2FC (Gene 7416): -0.421
VDR log2FC (Gene 7421): -1.024
VEGFB log2FC (Gene 7423): 0.125
VHL log2FC (Gene 7428): -0.079
WFS1 log2FC (Gene 7466): -0.599
WNT5A log2FC (Gene 7474): 0.134
WNT7A log2FC (Gene 7476): -0.086
WNT7B log2FC (Gene 7477): -0.378
WNT10B log2FC (Gene 7480): -0.488
WNT11 log2FC (Gene 7481): -0.088
WNT9A log2FC (Gene 7483): 0.041
WRN log2FC (Gene 7486): 0.379
WT1 log2FC (Gene 7490): -0.652
XDH log2FC (Gene 7498): 0.004
XPA log2FC (Gene 7507): 0.468
XRCC2 log2FC (Gene 7516): -0.599
XRCC4 log2FC (Gene 7518): 0.561
YWHAB log2FC (Gene 7529): 0.178
YWHAE log2FC (Gene 7531): 0.050
YWHAG log2FC (Gene 7532): -0.883
YWHAH log2FC (Gene 7533): -0.481
YWHAZ log2FC (Gene 7534): -0.301
ZNF16 log2FC (Gene 7564): 0.344
PCGF2 log2FC (Gene 7703): -0.113
DAP3 log2FC (Gene 7818): 0.276
BTG2 log2FC (Gene 7832): -1.051
PAX8 log2FC (Gene 7849): 0.485
FZD5 log2FC (Gene 7855): -0.196
SCG2 log2FC (Gene 7857): 0.168
NR4A3 log2FC (Gene 8013): 0.337
LHX3 log2FC (Gene 8022): 0.039
RASSF7 log2FC (Gene 8045): 0.194
FOSL1 log2FC (Gene 8061): -2.531
CUL5 log2FC (Gene 8065): -0.235
FXR1 log2FC (Gene 8087): 0.653
HMGA2 log2FC (Gene 8091): -1.508
GDF5 log2FC (Gene 8200): -0.438
RBM10 log2FC (Gene 8241): -0.115
AXIN1 log2FC (Gene 8312): 0.422
NME5 log2FC (Gene 8382): 0.271
PLA2G6 log2FC (Gene 8398): -0.123
SRPX log2FC (Gene 8406): 0.201
STK24 log2FC (Gene 8428): -0.049
NSMAF log2FC (Gene 8439): 0.165
DYRK2 log2FC (Gene 8445): -0.467
CUL4A log2FC (Gene 8451): 0.376
CUL3 log2FC (Gene 8452): 0.00335
CUL2 log2FC (Gene 8453): 0.251
CUL1 log2FC (Gene 8454): 0.207
KLF11 log2FC (Gene 8462): 1.202
OGT log2FC (Gene 8473): 0.352
IKBKG log2FC (Gene 8517): -0.216
CBX4 log2FC (Gene 8535): -0.090
API5 log2FC (Gene 8539): -0.497
YARS log2FC (Gene 8565): -0.500
MADD log2FC (Gene 8567): 0.749
UNC5C log2FC (Gene 8633): 0.011
AKR1C3 log2FC (Gene 8644): 0.528
NCOA1 log2FC (Gene 8648): 0.476
DYNLL1 log2FC (Gene 8655): -1.055
IRS2 log2FC (Gene 8660): 0.876
BECN1 log2FC (Gene 8678): 0.354
PEA15 log2FC (Gene 8682): 0.569
HYAL2 log2FC (Gene 8692): -0.333
TRADD log2FC (Gene 8717): 0.506
TNFRSF25 log2FC (Gene 8718): -0.549
RIPK1 log2FC (Gene 8737): -0.336
CRADD log2FC (Gene 8738): -0.080
HRK log2FC (Gene 8739): 0.399
RIPK2 log2FC (Gene 8767): 0.379
TNFRSF6B log2FC (Gene 8771): -1.304
FADD log2FC (Gene 8772): -0.617
TNFRSF18 log2FC (Gene 8784): -0.038
TNFRSF10D log2FC (Gene 8793): -0.508
TNFRSF10B log2FC (Gene 8795): -0.908
TNFRSF10A log2FC (Gene 8797): -0.907
TRIM24 log2FC (Gene 8805): 0.826
NRP1 log2FC (Gene 8829): -0.252
SYNGAP1 log2FC (Gene 8831): -0.399
SOCS2 log2FC (Gene 8835): 0.381
CFLAR log2FC (Gene 8837): -0.542
HDAC3 log2FC (Gene 8841): -0.248
ALKBH1 log2FC (Gene 8846): -0.111
TSC22D1 log2FC (Gene 8848): 0.388
CDK5R1 log2FC (Gene 8851): -0.328
ALDH1A2 log2FC (Gene 8854): 0.042
IER3 log2FC (Gene 8870): -2.265
ARHGEF7 log2FC (Gene 8874): 0.044
SPHK1 log2FC (Gene 8877): -0.416
SQSTM1 log2FC (Gene 8878): 0.782
SGPL1 log2FC (Gene 8879): -0.0047
TAX1BP1 log2FC (Gene 8887): 1.267
BCL10 log2FC (Gene 8915): 0.116
MBD4 log2FC (Gene 8930): 0.294
NOL3 log2FC (Gene 8996): 0.486
